Assays:
[1] = biological target: [^3H]muscimol binding (GABAΑ receptors) in rat brain cortical homogenate; assay: [3H]muscimol radioligand binding in rat cortical homogenate; conditions: for Ki: 5 nM [^3H]muscimol, n = 4; for pKi ± SEM: [^3H]muscimol
Experimental: The binding studies were performed using rat brain homogenate prepared from the cortex of adult Sprague-Dawley male rats (250–350 g) obtained from commercial breeders (Janvier Laboratories, Le Genest-Saint-Isle, France), housed and cared for according to the Danish legislation regulating animal experiments and the European Communities Council Directive (2010/63/EU). Homogenate preparation was performed as described earlier. On the day of assay, membranes stored at −20 °C was quickly thawed followed by addition of 40 volumes of ice-cold binding buffer (50 mM TRIS-HCl buffer; pH 7.4) and homogenization using and UltraTurrax homogenizer before being centrifuged at 48,000 ×g for 10 minutes at 4 °C. This washing procedure was repeated 4 times before the final pellet was suspended in the binding buffer to final concentration of approximately 0.5 mg/mL protein.
The radioligand binding assay was performed using [^3H]muscimol in a 96-well format. [^3H]muscimol (5 nM) was incubated with 75 μg/well protein with or without test compound or control at 0 °C for 1 hour in a total volume of 200 μL binding buffer in triplicates. […] After incubation, the binding reaction was terminated by rapid filtration through GF/C unifilters (PerkinElmer) with the use of a 96-well Packard FilterMate cell harvester (PerkinElmer), followed by 3 times washing in 250 μL ice-cold binding buffer. After drying at 65 °C, microscintillation fluid was added to the dried filters and the radioactivity bound to the filter was quantified in a Packard TopCounter microplate scintillation counter. The obtained binding data was converted into specific binding (% of control) for each data point and fitted to the one-site competition model by […] (GraphPad Prism, version 8.2.1). The fitted IC50 values were converted into Ki values by means of the Cheng-Prusoff equation[46]. Data are from three independent experiments, performed with three technical replicates and Ki values are given as pKi ± SEM.

[2] = tested on: MDR1 (P-glycoprotein), human; assay: Bidirectional membrane permeability in MDR1-MDCK cells; type: in vitro ADME, canine; conditions: dog, triplicate, read-out: basal to apical permeability
Experimental: (§1) Bidirectional permeability was tested for 018 and 2027 in the Madin-Darby canine kidney (MDCK) cell line expressing human multidrug resistance protein (MDR1, P-glycoprotein) (referred to as MDR1-MDCK cells) as described previously. To calculate efflux ratio the permeability in the basal-to-apical direction was divided by the permeability in the apical-to-basal direction. The obtained data is from triplicate measurements.

[3] = tested on: MDR1 (P-glycoprotein); assay: as above; type: in vitro ADME, canine; conditions: dog, both before and after
Experimental: as §1

[4] = tested on: α3−5 containing GABAΑ receptors; assay: FMP assay, α3−5 containing receptors (summary); type: cell-based, human; conditions: range over subtypes; read-out: potencies (IC50) at α3−5 containing receptors
Experimental: (§2) HEK293 cells were maintained in DMEM containing GlutaMAX-I, supplemented with 10% FBS and 1% penicillin-streptomycin and incubated at 37 °C and a humidity of 5% CO2. For expression of δ-containing GABAΑ receptors, a HEK293 Flp-In^ΤΜ cell line stably expressing the human GABAΑ δ-subunits (referred to as δ-HEK) was used and the γ-containing subtypes was expressed in a background HEK293 Flp-In^ΤΜ cell line stably expressing the G-protein coupled peptide receptor NPBWR2 (referred to as HEK background)[26], both positively selected for using 200 μg/mL hygromycin B. α1β2γ2 receptors were stably expressed in a HEK293 cell line maintained as above but with no selection (gift from Marianne L. Jensen, Neurosearch). […]
(§3) The FMP assay was performed as previously described with a few modifications. […] Data was obtained as changes in fluorescence units (∆RFU) by measuring emission at 560 nm caused by excitation at 530 nm. […]
(§4) Data obtained in the FMP assay are given as relative changes in fluorescence units (ΔRFU) by subtracting the average of the baseline fluorescence signal from the peak fluorescence signal after compound addition. […]

[5] = tested on: α1,2,6 GABAΑ receptors; assay: FMP assay, α1,2,6 receptors (summary); type: cell-based, human; conditions: range over subtypes; read-out: potency (IC50) at α1,2,6 receptors
Experimental: as §2, §3, §4

Ki [1]	pKi ± SEM [1]	Papp B→A [2]	recovery [3]	IC50 [4]	IC50 [5]	SMILES
20 nM	7.71 ± 0.06	0.79 ×10⁻⁶ cm/s	> 85%	37 to 88 nM	240 to 790 nM	O=C(Nc1cccc(C(=O)N2CCC3(CCNCC3)CC2)c1)c1cccs1 [compound 018, N-(3-(3,9-diazaspiro[5.5]undecane-3-carbonyl)phenyl)thiophene-2-carboxamide]
560 nM	6.25 ± 0.06	0.67 ×10⁻⁶ cm/s	> 85%			CC(=O)Nc1cccc(C(=O)N2CCC3(CCNCC3)CC2)c1 [compound 2027, N-(3-(3,9-diazaspiro[5.5]undecane-3-carbonyl)phenyl)acetamide]

From article PMC7308271, “Discovery of a new class of orthosteric antagonists with nanomolar potency at extrasynaptic GABAA receptors” (Scientific Reports, 2020)
